Assay results: patent US20150315202A1, “CHLORIN DERIVATIVE USEFUL IN PHOTODYNAMIC THERAPY AND DIAGNOSIS” (RMW CHO GROUP LIMITED, priority 2012, published 2015)
Values joined by “and” are separate entries in the source; they are usually repeats but may differ in a detail not shown here. Equal entries are not always repeated.

Columns and labels:
[1] = tested on: advanced non-small cell lung cancer; assay: Clinical study with patients suffering from advanced non-small cell lung cancer; type: in vivo, human
Procedure: Through pathology or cytology diagnosis, 66 advanced non-small cell lung cancer patients were selected and randomly divided into two groups. Group A had 32 patients who were treated with chlorin e4 sodium. Group B had 34 patients who were treated with both chemotherapy and radiotherapy.
For group A, chlorin e4 sodium was administered at a dosage of 2 mg per kilogram of body weight, with two thirds administered by inhalation and one third administered orally. After the irradiation target(s) had been determined, an optical fibre for laser treatment purposes was guided into the lung tumor(s) via an interstitial procedure. Irradiation light intensity was 200 J/cm^2, irradiation power was 1,000 mW, and irradiation lasted for eight to ten minutes. Laser irradiation into the tumor was two to five centimeters in depth. Irradiation was either performed phase by phase (sub-paragraph treatment) based on tumor size or performed repeatedly.
For group B, for the radiotherapy, a 15 MV X-ray radiation therapy irradiation field covered primary lung tumor lesion(s) and mediastinal lymphatic drainage area, with a dosage of 65-70 Gy, administered on every first day in a week of radiotherapy. For the chemotherapy, 20 mg cisplatin was administered by intravenous application.

[2] = Singlet oxygen phosphorescence at 1270 nm after pulsed laser excitation; type: physicochemical; details: for Decay time of photosensitized singlet oxygen phosphorescence / Rise time of photosensitized singlet oxygen phosphorescence: air saturated
Procedure: Singlet oxygen phosphorescence was detected using measurement of infrared phosphorescence at 1270 nm corresponding to the transition of oxygen molecules from the singlet to the triplet state. Phosphorescence was recorded at room temperature with the laser phosphorescence spectrometer described at A. A. Krasnovsky Jr., Photodynamic action and singlet oxygen, Biofizika, 2004, 49, 305-321; and A. A. Krasnovsky Jr., Singlet oxygen and primary mechanisms of photodynamic therapy and photodynamic diseases, In: Photodynamic therapy at the cellular level, ed. A. B. Uzdensky, Research Singpost, Kerala, India, 2007, 17-62. For excitation, nanosecond pulses of 511 nm radiation from a copper-vapour laser (Troitzk, Physics Institute of the Russian Academy of Science) were employed. Laser radiation passed additionally through a green light filter SZS-22 (4 mm), which transmitted laser light and cut off IR laser radiation caused by heating of the laser tube. Pulse duration was 20 ns, pulse energy varied from 18 to 40 μJ and the pulse repetition rate was 12 kHz. The laser light was collimated on the surface of a 1 cm rectangular quartz cuvette. The diameter of the illuminated spot on the surface of the cell was 5 mm. For kinetic measurements another spectrometer was used without a monochromator. In this case, phosphorescence resulting from the right angle to the excitation beam was focused on the photocathode of a cooled S-1 photomultiplier (FEU-112) through a cut-off IR light filter and an interference filter with the transmission maximum at 1270 nm. The phosphorescence spectra were measured using a MS-80 high throughput grid monochromator. In this case, phosphorescence was focused on the entry slit of this monochromator. The bandwidth of the monochromator corresponded to a 20 nm spectral interval. The monochromatic light was focused on the photocathode of a cooled S-1 photomultiplier (FEU-83). The photomultiplier signal was registered using time-correlated single photon counting and averaged over many laser pulses. In most experiments, one-channel on time was equal to 81 ns. When the pigment bleaching reached 10%, the solution was replaced by a fresh one and measurement was continued. […] Reasonable phosphorescent curves were obtained after 10-20 minutes signal accumulation and therefore samples were changed many times. As described previously (D. A. Butorina, A. A. Krasnovsky Jr. and A. V. Priezzev, Investigation of the kinetic parameters of singlet molecular oxygen in aqueous porphyrin solutions, Influence of detergents and the quencher sodium azide, Biofizika, 2003, 48, 189-196; A. A. Krasnovsky Jr., Luminescence and photochemical studies of singlet oxygen photonics, J. Photochem. Photobiol. A: Chem., 2008, 196, 210-218; and N. Kuznetsova, D. Makarov, O. Yuzhakova, A. Strizhakov, Y. Roumbal, L. Ulanova, A. Krasnovsky and O. Kaliya, Photophysical properties and photodynamic activity of octacationic oxotitanium(IV) phthalocyanines, Photochemical Photobiological Sciences, 2009, 8, 1724-1733), for computer analysis the following two-exponential equation was used: […]
I(t)I0·[exp(−kdecay·t)−exp(−krise·t)]+n
where kdecay and krise are the rate constants of the decay and rise phases of the phosphorescence curves after a laser pulse, n is the off noise of the photomultiplier, I0 is the zero-time phosphorescence intensity, and I(t) is the phosphorescence intensity at time t. To reduce contribution of the luminescence of the pigment in the quartz cuvette, which was observed shortly after laser pulses, readings were taken starting from 400 ns after laser pulses in ethanol and 1 μs in water. In addition, phosphorescence and kinetic traces were measured also from the control chlorin e4 sodium solutions containing high concentration of sodium azide, which completely quenched singlet oxygen. […]

[3] = tested on: non-small cell lung cancer with metastases in the lymph nodes and bones; assay: In vivo studies Example 8: patient, oral chlorin e4 sodium plus laser and LED light; parameters: species or system human
Procedure: (§1) A patient with non-small cell lung cancer with metastases in the lymph nodes and bones, was treated successfully. The treatment consisted of two courses. For each course, five doses of 62.5-187.5 mg chlorin e4 sodium were administered orally over the course of eight days. About 24 hours after each oral dose of chlorin e4 sodium, the patient was treated with laser and LED light having a wavelength of 660 nm and 760 nm.

[4] = tested on: advanced pancreatic cancer with metastases in the liver; assay: In vivo studies Example 7: patient, oral chlorin e4 sodium plus laser and LED light; parameters: species or system human
Procedure: as §1, with “advanced pancreatic” for “non-small cell lung”, “liver,” for “lymph nodes and bones,”, “successfully. Prior to treatment the patient was in poor health generally and suffering from extreme weight loss, pain and other typical symptoms of advanced pancreatic cancer.” for “successfully.”, “three” for “two”

[5] = group A (32 patients): chlorin e4 sodium 2 mg/kg inhalation and oral + interstitial laser, group B (34 patients): cisplatin 20 mg iv + radiotherapy

## C=Cc1c(C)c2cc3nc(c(C)c4[nH]c(cc5nc(cc1[nH]2)C(C)=C5CC)c(C)c4C(=O)O)[C@@H](CCC(=O)O)[C@@H]3C [chlorin e4 sodium]
[1]; [5]
  One year survival rate: 93.75%
  Two years survival rate: 68.75%
[1]; group A: chlorin e4 sodium 2 mg/kg + interstitial laser, group B: cisplatin 20 mg iv + radiotherapy
  Combined complete and partial remission rate: 56.20%
[2]; 511 nm laser pulses, solutions changed after each 60-180 s irradiation
  Pigment bleaching under laser irradiation: bleached rather rapidly
[2]; Ethanol
  Decay time of photosensitized singlet oxygen phosphorescence: 13.5 μs and 13.5 ± 0.3 μs
  Rise time of photosensitized singlet oxygen phosphorescence: 0.3 ± 0.3 μs
[2]; Water + 0.2M SDS
  Decay time of photosensitized singlet oxygen phosphorescence: 3.85 ± 0.3 μs
  Rise time of photosensitized singlet oxygen phosphorescence: 1.2 ± 0.3 μs
[2]; Water
  Decay time of photosensitized singlet oxygen phosphorescence: 3.3 ± 0.3 μs
  Rise time of photosensitized singlet oxygen phosphorescence: 1.8 ± 0.4 μs
[2]; ethanol
  Rise time of singlet oxygen phosphorescence: 300 ns
[2]; ethanol, from phosphorescence kinetic curves, reference TPPS
  Singlet oxygen quantum yield: 0.63±0.05
[2]; water without SDS
  Photosensitizing activity: lower than in ethanol
[3]; 10 months after starting, seven months after completion of treatment
  Patient status: alive and well
[3]; before and after two courses
  Response of the lungs (PET/CT): many tumours disappearing and the remaining tumours showing no or low metabolic activity
[3]; two courses
  Side effects: no side effects
[4]; before and after three courses
  Response in the pancreatic area (PET/CT): improvements and a good treatment response
[4]; three courses
  Pain: suffered less pain
  Photosensitive reaction: no photosensitive reaction
